The record followed here is patent publication US20250129070A1, “BIFUNCTIONAL ANDROGEN RECEPTOR COMPOUNDS” (priority 2023, published 2025).

Bounds are passed on as bounds.

A word on the EC50: it is the concentration at which the effect is half-maximal. Read a high EC50 as weaker potency.

This experiment relates to AR / CBP ternary complex. Nature of the experiment: Ternary complex formation assay (sandwich ELISA, AR capture / CBP detection) in VCaP cell lysates. Format: cell-based. The note with it: 1.5 hours treatment, sandwich ELISA (AR capture, CBP or p300 detection). The procedure:
Preparation of Mouse Anti-AR Antibody Coated 96 Well Plates
Black MaxiSorp plates: coat with 50 μL of mouse 1/50 diluted AR antibody (Monoclonal Antibody (AR 441 from Thermo Fisher); diluted in phosphate buffered saline (PBS). Spin the liquid to the bottom of the wells, if necessary. Incubate overnight at 4° C. Next day, wash 3 times with 200 μL of TBST. Block with 200 μL of blocking buffer (5% BSA in TBST) at room temperature for 2 hours (BSA: A4503 or A2153 from Sigma). Wash plates 3 times with TBST. Plates are ready for lysates Preparation of dimerizer treated lysates
Culture cells in 96 wells at 50K VCaP cells/well for at least 3 days. Plate in 5% Omega charcoal stripped FBS in total volume of 200 uL. Treat with bifunctional for 1.5 hours by adding 1 μL of 200× stock in DMSO. Aspirate media/compound. Add and pipet-to-mix 70 μL of 1× AlphaLisa Lysis Buffer to each well (Perkin Elmer, AlphaLISA SureFire Ultra, diluted in water). Pipet up and down when adding lysis buffer to disrupt cells. Let lysis proceed for 30 min at 4° C.
Incubate for 1 hour at room temperature. Flick out the lysates. Wash 3 times with TBST. Add 75 μL of rabbit CBP or p300 antibody to each well (diluted 1:5000 in blocking buffer (5% BSA in TBST). CBP antibody: (D6C5) Rabbit mAb #7389; p300 antibody: (D8Z4E) Rabbit mAb #86377. Incubate overnight at 4° C. Wash 3 times with 300 uL TBST, each time on shaker for 5-10 min. Prepare goat anti-rabbit antibody conjugated to HRP (1/100K dilution in blocking buffer) Invitrogen Catalog number: 32260. Add 75 μL of HRP-conjugated goat anti-rabbit antibody. Incubate at room temperature for 1 hour. Flick out the HRP-antibody mixture. Wash 7-8 times with TBST, each time on shaker for 10 min. Later washes try to overflow the wells so that no residual HRP remains bound to the sides of the well. Prepare and add 75 uL/well of QuantaRed Enhance Chemifluorescent HRP Substrate solution. Immediately read fluorescence on BMG ClarioStar (ex: 570/em 585), and repeat the read in 5 minutes and 15 minutes.
For orientation: An ELISA detects its analyte on a solid surface through an enzyme-linked reagent.
Compound `CC(=O)N1CCc2c(c(N3CCCc4cc(-c5cnn(C)c5)c(C(F)F)cc43)nn2C2CCC3(CC2)CCN(c2ncc(C(=O)NC4C(C)(C)C(Oc5ccc(C#N)c(Cl)c5)C4(C)C)cn2)C3)C1` (stereo not shown) [Compound 407, 2-[8-[5-acetyl-3-[7-(difluoromethyl)-6-(1-methylpyrazol-4-yl)-3,4-dihydro-2H-quinolin-1-yl]-6,7-dihydro-4H-pyrazolo[4,3-c]pyridin-1-yl]-2-azaspiro[4.5]decan-2-yl]-N-[3-(3-chloro-4-cyano-phenoxy)-2,2,4,4-tetramethyl-cyclobutyl]pyrimidine-5-carboxamide] returned an EC50 of 10 to 100 nM.
The same measure for `CC(=O)N1CCc2c(c(N3CCCc4cc(-c5cnn(C)c5)c(C(F)F)cc43)nn2C2CN(C(=O)CC3CCN(c4ncc(C(=O)NC5C(C)(C)C(Oc6ccc(C#N)c(Cl)c6)C5(C)C)cn4)CC3)C2)C1` (stereo not shown) [Compound 163, 2-[4-[2-[3-[5-acetyl-3-[7-(difluoromethyl)-6-(1-methylpyrazol-4-yl)-3,4-dihydro-2H-quinolin-1-yl]-6,7-dihydro-4H-pyrazolo[4,3-c]pyridin-1-yl]azetidin-1-yl]-2-oxo-ethyl]-1-piperidyl]-N-[3-(3-chloro-4-cyano-phenoxy)-2,2,4,4-tetramethyl-cyclobutyl]pyrimidine-5-carboxamide]: less than 1 nM; for `COc1cc(OC2C(C)(C)C(NC(=O)c3ccc(N4CC(N5CC6(CCC(n7nc(N8CCCc9cc(-c%10cnn(C)c%10)c(C(F)F)cc98)c8c7CCN(C(C)=O)C8)CC6)C5)C4)cc3)C2(C)C)ccc1C#N` (stereo not shown) [Compound 370, 4-[3-[7-[5-acetyl-3-[7-(difluoromethyl)-6-(1-methylpyrazol-4-yl)-3,4-dihydro-2H-quinolin-1-yl]-6,7-dihydro-4H-pyrazolo[4,3-c]pyridin-1-yl]-2-azaspiro[3.5]nonan-2-yl]azetidin-1-yl]-N-[3-(4-cyano-3-methoxy-phenoxy)-2,2,4,4-tetramethyl-cyclobutyl]benzamide]: less than 1 nM; for `CC(=O)N1CCc2c(c(-c3cccc4cc(-c5cnn(C)c5)ncc34)nn2C2CCN(CC3C(C)CN(c4ncc(C(=O)NC5C(C)(C)C(Oc6ccc(C#N)c(Cl)c6)C5(C)C)cn4)CC3C)CC2)C1` (stereo not shown) [Compound 440, 2-[4-[[4-[5-acetyl-3-[3-(1-methylpyrazol-4-yl)-8-isoquinolyl]-6,7-dihydro-4H-pyrazolo[4,3-c]pyridin-1-yl]-1-piperidyl]methyl]-3,5-dimethyl-1-piperidyl]-N-[3-(3-chloro-4-cyano-phenoxy)-2,2,4,4-tetramethyl-cyclobutyl]pyrimidine-5-carboxamide]: less than 1 nM.
Turning to `CC(=O)N1CCc2c(c(N3CCCc4cc(-c5cnn(C)c5)c(C(F)F)cc43)nn2C2CCN(C(=O)C3CCN(c4ccc(C(=O)NC5C(C)(C)C(Oc6ccc(C#N)c(Cl)c6)C5(C)C)cc4)CC3)CC2)C1` (stereo not shown) [Compound 116, 4-[4-[4-[5-acetyl-3-[7-(difluoromethyl)-6-(1-methylpyrazol-4-yl)-3,4-dihydro-2H-quinolin-1-yl]-6,7-dihydro-4H-pyrazolo[4,3-c]pyridin-1-yl]piperidine-1-carbonyl]-1-piperidyl]-N-[3-(3-chloro-4-cyano-phenoxy)-2,2,4,4-tetramethyl-cyclobutyl]benzamide], the concentration giving a half-maximal response (EC50) was more than 100 nM.
In turn, `CC(=O)N1CCc2c(c(N3CCCc4cc(-c5cnn(C)c5)c(C(F)F)cc43)nn2C2CCN(C(=O)N3CCN(c4ncc(C(=O)NC5C(C)(C)C(Oc6ccc(C#N)c(Cl)c6)C5(C)C)cn4)CC3)CC2)C1` (stereo not shown) [Compound 112, 2-[4-[4-[5-acetyl-3-[7-(difluoromethyl)-6-(1-methylpyrazol-4-yl)-3,4-dihydro-2H-quinolin-1-yl]-6,7-dihydro-4H-pyrazolo[4,3-c]pyridin-1-yl]piperidine-1-carbonyl]piperazin-1-yl]-N-[3-(3-chloro-4-cyano-phenoxy)-2,2,4,4-tetramethyl-cyclobutyl]pyrimidine-5-carboxamide] had an EC50 of less than 1 nM.
`CNC(=O)N1CCc2c(c(N3CCCc4cc(-c5cnn(C)c5)c(C(F)F)cc43)nn2C2CCN(CCOCc3ncc(C(=O)NC4C(C)(C)C(Oc5ccc(C#N)c(Cl)c5)C4(C)C)cn3)CC2)C1` (stereo not shown) [Compound 86, 1-[1-[2-[[5-[[3-(3-chloro-4-cyano-phenoxy)-2,2,4,4-tetramethyl-cyclobutyl]carbamoyl]pyrimidin-2-yl]methoxy]ethyl]-4-piperidyl]-3-[7-(difluoromethyl)-6-(1-methylpyrazol-4-yl)-3,4-dihydro-2H-quinolin-1-yl]-N-methyl-6,7-dihydro-4H-pyrazolo[4,3-c]pyridine-5-carboxamide] gave an EC50 of more than 100 nM.
In turn, `COc1cc(O[C@H]2C(C)(C)[C@H](NC(=O)c3ccc(N4CCN(C5CN(c6ccc(-c7cc8c(cc7C(F)F)N(c7nn(C9CCOCC9)c9c7CN(C(C)=O)CC9)CCC8)cn6)C5)CC4)cc3)C2(C)C)ccc1C#N` [Compound 326, 4-(4-(1-(5-(1-(5-acetyl-1-(tetrahydro-2H-pyran-4-yl)-4,5,6,7-tetrahydro-1H-pyrazolo[4,3-c]pyridin-3-yl)-7-(difluoromethyl)-1,2,3,4-tetrahydroquinolin-6-yl)pyridin-2-yl)azetidin-3-yl)piperazin-1-yl)-N-((1r,3r)-3-(4-cyano-3-methoxyphenoxy)-2,2,4,4-tetramethylcyclobutyl)benzamide] yielded a concentration for a half-maximal effect (EC50) of less than 1 nM.
In turn, `CC(=O)N1CCc2c(c(N3CCCc4cc(-c5cnn(C)c5)c(C(F)F)cc43)nn2C2CCC(OC3CN(c4ncc(C(=O)NC5C(C)(C)C(Oc6ccc(C#N)c(Cl)c6)C5(C)C)cn4)C3)CC2)C1` (stereo not shown) [Compound 340, 2-[3-[4-[5-acetyl-3-[7-(difluoromethyl)-6-(1-methylpyrazol-4-yl)-3,4-dihydro-2H-quinolin-1-yl]-6,7-dihydro-4H-pyrazolo[4,3-c]pyridin-1-yl]cyclohexoxy]azetidin-1-yl]-N-[3-(3-chloro-4-cyano-phenoxy)-2,2,4,4-tetramethyl-cyclobutyl]pyrimidine-5-carboxamide] gave a half-maximal effective concentration (EC50) of less than 1 nM.
Compound `CC(=O)N1CCc2c(c(N3CCCc4cc(-c5cnn(C)c5)c(C(F)F)cc43)nn2C2CCN(C3CCC(Oc4ncc(C(=O)NC5C(C)(C)C(Oc6ccc(C#N)c(Cl)c6)C5(C)C)cn4)CC3)CC2)C1` (stereo not shown) [Compound 382, 2-[4-[4-[5-acetyl-3-[7-(difluoromethyl)-6-(1-methylpyrazol-4-yl)-3,4-dihydro-2H-quinolin-1-yl]-6,7-dihydro-4H-pyrazolo[4,3-c]pyridin-1-yl]-1-piperidyl]cyclohexoxy]-N-[3-(3-chloro-4-cyano-phenoxy)-2,2,4,4-tetramethyl-cyclobutyl]pyrimidine-5-carboxamide] registered an EC50 of less than 1 nM.
`COc1cc(OC2C(C)(C)C(NC(=O)c3ccc(N4CC(C)C(CN5CCC(n6nc(-c7cccc8cc(-c9cnn(C)c9)ncc78)c7c6CCN(C(C)=O)C7)CC5)C(C)C4)cc3)C2(C)C)ccc1C#N` (stereo not shown) [Compound 441, 4-[4-[[4-[5-acetyl-3-[3-(1-methylpyrazol-4-yl)-8-isoquinolyl]-6,7-dihydro-4H-pyrazolo[4,3-c]pyridin-1-yl]-1-piperidyl]methyl]-3,5-dimethyl-1-piperidyl]-N-[3-(4-cyano-3-methoxy-phenoxy)-2,2,4,4-tetramethyl-cyclobutyl]benzamide] came in with a concentration giving a half-maximal response (EC50) of less than 1 nM.
For the compound `CC(=O)N1CCc2c(c(N3CCCc4cc(-c5cnn(C)c5)c(C(F)F)cc43)nn2C2CCN(CC3C(C)CN(c4ncc(C(=O)NC5C(C)(C)C(Oc6ccc(C#N)c(C(F)(F)F)c6)C5(C)C)cn4)CC3C)CC2)C1` (stereo not shown) [Compound 463, 2-[4-[[4-[5-acetyl-3-[7-(difluoromethyl)-6-(1-methylpyrazol-4-yl)-3,4-dihydro-2H-quinolin-1-yl]-6,7-dihydro-4H-pyrazolo[4,3-c]pyridin-1-yl]-1-piperidyl]methyl]-3,5-dimethyl-1-piperidyl]-N-[3-[4-cyano-3-(trifluoromethyl)phenoxy]-2,2,4,4-tetramethyl-cyclobutyl]pyrimidine-5-carboxamide], the EC50 was less than 1 nM.
`COc1cc(OC2C(C)(C)C(NC(=N)c3ccc(N4CCC(N(C)C5CCC(n6nc(N7CCCc8cc(-c9cnn(C)c9)c(C(F)F)cc87)c7c6CCN(C(C)=O)C7)CC5)CC4)cc3)C2(C)C)ccc1C#N` (stereo not shown) [Compound 278, 4-[4-[[4-[5-acetyl-3-[7-(difluoromethyl)-6-(1-methylpyrazol-4-yl)-3,4-dihydro-2H-quinolin-1-yl]-6,7-dihydro-4H-pyrazolo[4,3-c]pyridin-1-yl]cyclohexyl]-methyl-amino]-1-piperidyl]-N-[3-(4-cyano-3-methoxy-phenoxy)-2,2,4,4-tetramethyl-cyclobutyl]benzamidine] gave a concentration giving a half-maximal response (EC50) of less than 1 nM.
